# Measured values taken from ChEMBL document CHEMBL5291721, “A preclinical secondary pharmacology resource illuminates target-adverse drug reaction associations of marketed drugs” (Nat Commun, 2023).
# What was measured:
# Melanocortin receptor 3 = Melanocortin receptor 3 (Homo sapiens, UniProt P41968)
# [1] = molecular target: Kappa-type opioid receptor (Homo sapiens, UniProt P41145)
# [2] = molecular target: T1, Type-1 angiotensin II receptor (Homo sapiens, UniProt P30556)
# T1 sequence (P30556 whole entry): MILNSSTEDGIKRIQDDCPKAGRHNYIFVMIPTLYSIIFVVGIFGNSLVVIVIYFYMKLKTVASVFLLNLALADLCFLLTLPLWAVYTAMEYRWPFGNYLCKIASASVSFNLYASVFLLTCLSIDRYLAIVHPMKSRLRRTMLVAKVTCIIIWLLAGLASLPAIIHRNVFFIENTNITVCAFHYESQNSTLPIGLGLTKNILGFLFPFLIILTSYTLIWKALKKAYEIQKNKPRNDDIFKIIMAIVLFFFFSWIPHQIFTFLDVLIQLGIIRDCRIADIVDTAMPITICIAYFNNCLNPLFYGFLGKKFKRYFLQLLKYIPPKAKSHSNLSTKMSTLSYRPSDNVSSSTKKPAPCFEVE
# Mu-type opioid receptor = Mu-type opioid receptor (Homo sapiens, UniProt P35372)
# [3] = molecular target: T2, Neuropeptide Y receptor type 1 (Homo sapiens, UniProt P25929)
# T2 sequence (P25929 whole entry): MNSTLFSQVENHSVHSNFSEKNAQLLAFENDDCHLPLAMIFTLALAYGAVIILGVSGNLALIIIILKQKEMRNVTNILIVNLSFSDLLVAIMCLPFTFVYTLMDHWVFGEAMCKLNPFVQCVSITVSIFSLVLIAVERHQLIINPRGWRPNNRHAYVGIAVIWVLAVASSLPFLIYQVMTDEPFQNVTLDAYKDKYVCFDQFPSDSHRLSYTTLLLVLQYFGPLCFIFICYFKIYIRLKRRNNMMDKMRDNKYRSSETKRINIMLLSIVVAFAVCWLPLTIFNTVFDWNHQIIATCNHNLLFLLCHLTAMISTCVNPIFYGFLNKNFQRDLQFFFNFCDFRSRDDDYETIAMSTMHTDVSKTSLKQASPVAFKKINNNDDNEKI
# Melanocortin receptor 4 = Melanocortin receptor 4 (Homo sapiens, UniProt P32245)
# [4] = molecular target: T3, Cholecystokinin receptor type A (Homo sapiens, UniProt P32238)
# T3 sequence (P32238 whole entry): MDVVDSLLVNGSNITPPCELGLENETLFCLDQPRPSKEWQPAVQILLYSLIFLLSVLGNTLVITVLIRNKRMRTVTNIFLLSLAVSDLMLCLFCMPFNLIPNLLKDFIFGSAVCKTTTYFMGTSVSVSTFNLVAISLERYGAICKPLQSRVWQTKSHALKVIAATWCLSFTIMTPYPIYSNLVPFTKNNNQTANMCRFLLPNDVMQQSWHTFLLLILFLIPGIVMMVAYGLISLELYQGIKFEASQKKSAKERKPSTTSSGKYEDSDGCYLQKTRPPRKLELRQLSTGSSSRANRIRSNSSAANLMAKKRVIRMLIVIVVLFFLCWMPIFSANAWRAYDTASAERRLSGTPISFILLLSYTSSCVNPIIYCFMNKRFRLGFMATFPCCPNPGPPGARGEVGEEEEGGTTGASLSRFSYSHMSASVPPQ
# [5] = molecular target: T4, Amine oxidase [flavin-containing] A (Homo sapiens, UniProt P21397); format: functional
# T4 sequence (P21397 whole entry): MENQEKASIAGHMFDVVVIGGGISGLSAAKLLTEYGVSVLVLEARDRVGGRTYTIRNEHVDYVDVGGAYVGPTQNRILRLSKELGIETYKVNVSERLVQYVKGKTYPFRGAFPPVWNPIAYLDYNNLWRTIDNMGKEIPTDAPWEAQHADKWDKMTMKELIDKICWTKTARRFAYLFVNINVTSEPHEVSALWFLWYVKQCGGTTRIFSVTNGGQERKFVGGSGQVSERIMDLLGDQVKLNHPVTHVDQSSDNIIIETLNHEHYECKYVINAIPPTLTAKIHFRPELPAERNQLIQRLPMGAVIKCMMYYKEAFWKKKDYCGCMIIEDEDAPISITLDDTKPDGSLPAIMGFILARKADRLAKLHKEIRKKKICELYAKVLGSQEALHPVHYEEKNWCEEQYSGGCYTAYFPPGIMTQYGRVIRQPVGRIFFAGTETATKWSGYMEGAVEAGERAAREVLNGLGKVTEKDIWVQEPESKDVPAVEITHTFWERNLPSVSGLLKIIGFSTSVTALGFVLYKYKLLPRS
# Estrogen receptor = molecular target: T5, Estrogen receptor (Homo sapiens, UniProt P03372)
# T5 sequence (P03372 whole entry): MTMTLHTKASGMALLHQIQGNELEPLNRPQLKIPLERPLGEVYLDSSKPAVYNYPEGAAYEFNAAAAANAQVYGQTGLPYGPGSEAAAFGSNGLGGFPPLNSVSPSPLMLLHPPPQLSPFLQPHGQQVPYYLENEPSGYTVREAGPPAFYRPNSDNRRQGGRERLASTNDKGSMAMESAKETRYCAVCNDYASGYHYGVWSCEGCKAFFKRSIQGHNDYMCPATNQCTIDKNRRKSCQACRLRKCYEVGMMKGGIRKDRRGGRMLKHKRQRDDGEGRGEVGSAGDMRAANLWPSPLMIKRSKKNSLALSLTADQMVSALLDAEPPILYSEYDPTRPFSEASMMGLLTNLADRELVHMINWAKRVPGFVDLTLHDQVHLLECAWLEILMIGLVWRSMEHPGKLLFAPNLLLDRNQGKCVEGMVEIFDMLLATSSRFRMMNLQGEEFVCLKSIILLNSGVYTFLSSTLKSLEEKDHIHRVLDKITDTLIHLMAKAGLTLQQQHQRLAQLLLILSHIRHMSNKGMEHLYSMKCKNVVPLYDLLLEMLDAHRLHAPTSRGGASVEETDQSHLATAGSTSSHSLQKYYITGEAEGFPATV
# Adenosine receptor A3 = molecular target: T6, Adenosine receptor A3 (Homo sapiens, UniProt P0DMS8)
# T6 sequence (P0DMS8 whole entry): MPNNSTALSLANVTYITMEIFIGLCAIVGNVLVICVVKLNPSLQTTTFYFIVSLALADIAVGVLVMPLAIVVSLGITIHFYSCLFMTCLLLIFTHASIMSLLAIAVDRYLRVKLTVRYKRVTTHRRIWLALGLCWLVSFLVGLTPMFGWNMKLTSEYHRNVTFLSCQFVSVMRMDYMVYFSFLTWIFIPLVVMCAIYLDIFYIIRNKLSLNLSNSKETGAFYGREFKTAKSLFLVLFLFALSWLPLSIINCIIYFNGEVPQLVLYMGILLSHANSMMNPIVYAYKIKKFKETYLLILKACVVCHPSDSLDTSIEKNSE
# Further: assay procedure not described here.
# Sequence of Melanocortin receptor 3 (P41968 whole entry): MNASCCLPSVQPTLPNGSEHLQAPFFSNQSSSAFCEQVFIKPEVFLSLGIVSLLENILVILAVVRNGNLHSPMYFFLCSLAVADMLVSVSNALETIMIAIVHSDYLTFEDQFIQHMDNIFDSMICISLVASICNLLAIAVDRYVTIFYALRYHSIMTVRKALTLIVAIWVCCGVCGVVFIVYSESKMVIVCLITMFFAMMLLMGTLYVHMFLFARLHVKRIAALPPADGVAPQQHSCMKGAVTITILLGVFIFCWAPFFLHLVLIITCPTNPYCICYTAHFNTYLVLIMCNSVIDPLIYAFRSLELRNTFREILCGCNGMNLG
# Sequence of Melanocortin receptor 4 (P32245 whole entry): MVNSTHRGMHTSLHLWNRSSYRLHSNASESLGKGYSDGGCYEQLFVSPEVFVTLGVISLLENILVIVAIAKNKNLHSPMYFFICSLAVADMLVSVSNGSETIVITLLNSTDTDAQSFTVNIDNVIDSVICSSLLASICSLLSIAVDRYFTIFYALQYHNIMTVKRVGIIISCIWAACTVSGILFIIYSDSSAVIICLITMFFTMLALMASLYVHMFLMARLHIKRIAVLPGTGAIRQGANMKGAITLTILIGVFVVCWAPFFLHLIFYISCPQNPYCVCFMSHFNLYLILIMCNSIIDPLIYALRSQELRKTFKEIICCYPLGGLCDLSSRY
# Sequence of Mu-type opioid receptor (P35372 whole entry): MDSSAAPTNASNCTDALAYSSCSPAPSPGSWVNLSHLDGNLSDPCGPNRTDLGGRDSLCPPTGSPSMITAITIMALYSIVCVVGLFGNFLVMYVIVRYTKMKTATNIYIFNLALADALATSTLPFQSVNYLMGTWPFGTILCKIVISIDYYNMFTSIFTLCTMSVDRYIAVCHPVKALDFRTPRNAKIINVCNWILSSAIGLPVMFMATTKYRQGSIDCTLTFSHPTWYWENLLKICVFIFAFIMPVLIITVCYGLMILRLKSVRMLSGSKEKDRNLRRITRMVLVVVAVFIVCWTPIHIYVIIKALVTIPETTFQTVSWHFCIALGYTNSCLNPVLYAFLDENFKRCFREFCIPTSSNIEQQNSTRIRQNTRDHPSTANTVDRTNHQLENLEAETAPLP
# Sequence of Kappa-type opioid receptor (P41145 whole entry): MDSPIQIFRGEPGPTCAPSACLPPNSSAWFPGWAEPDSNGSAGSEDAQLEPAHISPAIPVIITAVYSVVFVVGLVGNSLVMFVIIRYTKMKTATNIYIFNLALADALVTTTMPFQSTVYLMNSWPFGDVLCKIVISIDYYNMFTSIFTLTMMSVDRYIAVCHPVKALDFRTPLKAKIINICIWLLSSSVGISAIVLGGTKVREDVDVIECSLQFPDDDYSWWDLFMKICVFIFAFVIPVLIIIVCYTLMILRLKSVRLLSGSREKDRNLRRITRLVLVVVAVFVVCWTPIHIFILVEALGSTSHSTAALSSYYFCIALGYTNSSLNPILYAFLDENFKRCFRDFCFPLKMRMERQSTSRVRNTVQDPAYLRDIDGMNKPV
Compound,AC50 (Melanocortin receptor 3),AC50 [1],AC50 [2],AC50 (Mu-type opioid receptor),AC50 [3],AC50 (Melanocortin receptor 4),AC50 [4],AC50 [5],AC50 (Estrogen receptor),AC50 (Adenosine receptor A3)
O=C(/C=C/c1cccc(S(=O)(=O)Nc2ccccc2)c1)NO [BELINOSTAT],> 30 µM,> 10 µM,> 30 µM,> 30 µM,> 30 µM,> 30 µM,> 30 µM,> 10 µM,27.9 µM,–
CCOC(=O)c1ccc(N)cc1 [BENZOCAINE],> 10 µM,> 10 µM,> 10 µM,–,> 10 µM,> 10 µM,> 10 µM,19 µM,–,–
CC(C)(Oc1ccc(CCNC(=O)c2ccc(Cl)cc2)cc1)C(=O)O [BEZAFIBRATE],> 10 µM,> 10 µM,> 10 µM,–,> 10 µM,> 10 µM,> 10 µM,> 10 µM,–,–
CC(O)(CS(=O)(=O)c1ccc(F)cc1)C(=O)Nc1ccc(C#N)c(C(F)(F)F)c1 (stereo not given) [BICALUTAMIDE],> 30 µM,> 10 µM,> 30 µM,> 30 µM,> 30 µM,> 30 µM,> 30 µM,> 10 µM,–,–
CC(=O)O[C@]1(C(C)=O)CC[C@H]2[C@@H]3C=C(Cl)C4=CC(=O)[C@@H]5C[C@@H]5[C@]4(C)[C@H]3CC[C@@]21C [CYPROTERONE ACETATE],> 30 µM,> 10 µM,> 30 µM,> 30 µM,> 30 µM,> 30 µM,> 30 µM,> 10 µM,–,–
C/C=C(/C(=C/C)c1ccc(O)cc1)c1ccc(O)cc1 [DIENESTROL],> 10 µM,> 10 µM,> 10 µM,–,> 10 µM,> 10 µM,> 10 µM,> 10 µM,–,–
C[C@@H]1C[C@H]2[C@@H]3C[C@H](F)C4=CC(=O)C=C[C@]4(C)[C@@]3(F)[C@@H](O)C[C@]2(C)[C@@]1(OC(=O)c1ccco1)C(=O)SCF [FLUTICASONE FUROATE],> 10 µM,> 10 µM,> 10 µM,> 30 µM,> 10 µM,> 10 µM,> 10 µM,> 10 µM,–,–
COc1ccc([C@@H]2CC(=O)c3c(O)cc(O)cc3O2)cc1O [HESPERETIN],> 10 µM,> 10 µM,> 10 µM,–,> 10 µM,> 10 µM,> 10 µM,> 10 µM,–,–
CCC[C@@H]1C[C@@H](C(=O)N[C@@H]([C@H]2O[C@H](SC)[C@H](O)[C@@H](O)[C@H]2O)[C@@H](C)O)N(C)C1 [LINCOMYCIN],> 10 µM,> 10 µM,> 10 µM,–,> 10 µM,> 10 µM,> 10 µM,> 10 µM,–,–
C=C1c2cccc(O)c2C(=O)C2=C(O)[C@]3(O)C(=O)C(C(N)=O)=C(O)[C@@H](N(C)C)[C@@H]3[C@@H](O)[C@H]12 [METHACYCLINE],> 30 µM,> 10 µM,> 10 µM,–,> 30 µM,41.5 µM,> 30 µM,> 10 µM,–,–
CN(Cc1cnc2nc(N)nc(N)c2n1)c1ccc(C(=O)N[C@@H](CCC(=O)O)C(=O)O)cc1 [METHOTREXATE],> 30 µM,> 10 µM,> 30 µM,–,> 30 µM,> 30 µM,> 30 µM,> 10 µM,–,–
Cc1ccccc1N1C(=O)c2cc(S(N)(=O)=O)c(Cl)cc2NC1C (stereo not given) [METOLAZONE],> 10 µM,> 10 µM,> 10 µM,–,> 10 µM,> 10 µM,> 10 µM,> 10 µM,–,–
O=C(O)c1cccnc1Nc1cccc(C(F)(F)F)c1 [NIFLUMIC ACID],> 10 µM,> 10 µM,> 10 µM,–,> 10 µM,> 10 µM,> 10 µM,> 10 µM,–,–
O=C1c2cccc3c2[C@H](CCC3)CN1[C@@H]1CN2CCC1CC2 [PALONOSETRON],> 30 µM,> 30 µM,> 30 µM,–,> 30 µM,> 30 µM,> 30 µM,> 30 µM,–,–
O=C1c2ccccc2C(=O)C1c1ccccc1 [PHENINDIONE],> 10 µM,> 10 µM,> 10 µM,–,> 10 µM,> 10 µM,> 10 µM,> 10 µM,–,–
CN[C@@H](C)[C@@H](O)c1ccccc1 [PSEUDOEPHEDRINE],> 30 µM,> 10 µM,> 30 µM,–,> 30 µM,> 30 µM,> 30 µM,> 10 µM,–,–
COC(=O)[C@H]1[C@H]2C[C@@H]3c4[nH]c5cc(OC)ccc5c4CCN3C[C@H]2C[C@@H](OC(=O)c2cc(OC)c(OC)c(OC)c2)[C@@H]1OC [RESERPINE],> 10 µM,11.7 µM,> 10 µM,3.77 µM,> 10 µM,> 10 µM,> 10 µM,> 30 µM,–,17.7 µM
C[C@]12CCC(=O)C[C@@H]1CC[C@@H]1[C@@H]2CC[C@]2(C)[C@@H](O)CC[C@@H]12 [STANOLONE],> 30 µM,> 30 µM,> 30 µM,–,> 30 µM,> 30 µM,> 30 µM,> 30 µM,–,–
C[C@]12C=CC(=O)C=C1CC[C@@H]1[C@@H]2CC[C@]2(C)OC(=O)CC[C@@H]12 [TESTOLACTONE],> 10 µM,> 10 µM,> 10 µM,–,> 10 µM,> 10 µM,> 10 µM,> 10 µM,–,–
